{
  "source": "patent US8604023B2",
  "about": "“1,4-benzodiazepinone compounds and their use in treating cancer” (The Regents of the University of Michigan, priority 2009, dated 2013)",
  "key": {"[1]": {"system": "RXF 393", "experiment": "cancer cell growth inhibition (SRB)", "assay_type": "cell-based, human", "conditions": "Renal Cancer"}, "[2]": {"system": "UACC-257", "experiment": "cancer cell growth inhibition (SRB)", "assay_type": "cell-based, human", "conditions": "Melanoma"}, "[3]": {"system": "ACHN", "experiment": "cancer cell growth inhibition (SRB)", "assay_type": "cell-based, human", "conditions": "Renal Cancer"}, "[4]": {"system": "SK-MEL-28", "experiment": "cancer cell growth inhibition (SRB)", "assay_type": "cell-based, human", "conditions": "Melanoma"}, "[5]": {"system": "COLO 205", "experiment": "cancer cell growth inhibition (SRB)", "assay_type": "cell-based, human", "conditions": "Colon Cancer"}, "[6]": {"system": "HCT-15", "experiment": "cancer cell growth inhibition (SRB)", "assay_type": "cell-based, human", "conditions": "Colon Cancer"}, "[7]": {"system": "TK-10", "experiment": "cancer cell growth inhibition (SRB)", "assay_type": "cell-based, human", "conditions": "Renal Cancer"}, "[8]": {"system": "NCI-H522", "experiment": "cancer cell growth inhibition (SRB)", "assay_type": "cell-based, human", "conditions": "Non-Small Cell Lung Cancer"}, "[9]": {"system": "HCC-2998", "experiment": "cancer cell growth inhibition (SRB)", "assay_type": "cell-based, human", "conditions": "Colon Cancer"}, "[10]": {"system": "HOP-92", "experiment": "cancer cell growth inhibition (SRB)", "assay_type": "cell-based, human", "conditions": "Non-Small Cell Lung Cancer"}, "[11]": {"system": "Ramos cells", "experiment": "cytotoxicity in Ramos cells", "assay_type": "cell-based", "conditions": "Homo sapiens", "method": "The compounds listed in Table 5 were tested for cytotoxicity in Ramos cells. The assay was conducted as described in K. M. Johnson et al. Chemistry & Biology 2005, 12, 485-496."}, "[12]": {"system": "CAKI-1", "experiment": "cancer cell growth inhibition (SRB)", "assay_type": "cell-based, human", "conditions": "Renal Cancer"}, "[13]": {"system": "MDA-MB-435", "experiment": "cancer cell growth inhibition (SRB)", "assay_type": "cell-based, human", "conditions": "Breast Cancer"}, "[14]": {"system": "KM12", "experiment": "cancer cell growth inhibition (SRB)", "assay_type": "cell-based, human", "conditions": "Colon Cancer"}, "[15]": {"system": "UACC-62", "experiment": "cancer cell growth inhibition (SRB)", "assay_type": "cell-based, human", "conditions": "Melanoma"}, "[16]": {"system": "PC-3", "experiment": "cancer cell growth inhibition (SRB)", "assay_type": "cell-based, human", "conditions": "Prostate Cancer"}, "[17]": {"system": "DU-145", "experiment": "cancer cell growth inhibition (SRB)", "assay_type": "cell-based, human", "conditions": "Prostate Cancer"}, "[18]": {"system": "HL-60(TB)", "experiment": "cancer cell growth inhibition (SRB)", "assay_type": "cell-based, human", "conditions": "Leukemia"}, "[19]": {"system": "786-0", "experiment": "cancer cell growth inhibition (SRB)", "assay_type": "cell-based, human", "conditions": "Renal Cancer"}, "[20]": {"system": "A549/ATCC", "experiment": "cancer cell growth inhibition (SRB)", "assay_type": "cell-based, human", "conditions": "Non-Small Cell Lung Cancer"}, "[21]": {"system": "SNB-19", "experiment": "cancer cell growth inhibition (SRB)", "assay_type": "cell-based, human", "conditions": "CNS Cancer"}, "[22]": {"system": "SF-539", "experiment": "cancer cell growth inhibition (SRB)", "assay_type": "cell-based, human", "conditions": "CNS Cancer"}, "[23]": {"system": "SN12C", "experiment": "cancer cell growth inhibition (SRB)", "assay_type": "cell-based, human", "conditions": "Renal Cancer"}, "[24]": {"system": "T-47D", "experiment": "cancer cell growth inhibition (SRB)", "assay_type": "cell-based, human", "conditions": "Breast Cancer"}, "[25]": {"system": "SNB-75", "experiment": "cancer cell growth inhibition (SRB)", "assay_type": "cell-based, human", "conditions": "CNS Cancer"}, "[26]": {"system": "NCI/ADR-RES", "experiment": "cancer cell growth inhibition (SRB)", "assay_type": "cell-based, human", "conditions": "Breast Cancer"}, "[27]": {"system": "U251", "experiment": "cancer cell growth inhibition (SRB)", "assay_type": "cell-based, human", "conditions": "CNS Cancer"}, "[28]": {"system": "UO-31", "experiment": "cancer cell growth inhibition (SRB)", "assay_type": "cell-based, human", "conditions": "Renal Cancer"}, "[29]": {"system": "MDA-MB-231/ATCC", "experiment": "cancer cell growth inhibition (SRB)", "assay_type": "cell-based, human", "conditions": "Breast Cancer"}},
  "data": [
    {"smiles": "CN1C(=O)C(Cc2ccc3ccccc3c2)N=C(c2cn[nH]c2)c2cc(Cl)ccc21", "note": "(centres unmarked) [Compound V-38]", "values": [
      {"measurement": "growth inhibition of the cancer cells", "setting": "[1]", "result": "+++ (at least 75% growth inhibition of the cancer cells)"},
      {"measurement": "growth inhibition of the cancer cells", "setting": "[2]", "result": "+++ (at least 75% growth inhibition of the cancer cells)"},
      {"measurement": "growth inhibition of the cancer cells", "setting": "[3]", "result": "+++ (at least 75% growth inhibition of the cancer cells)"},
      {"measurement": "growth inhibition of the cancer cells", "setting": "[4]", "result": "+++ (at least 75% growth inhibition of the cancer cells)"},
      {"measurement": "growth inhibition of the cancer cells", "setting": "[5]", "result": "++ (40%-75% growth inhibition of the cancer cells)"},
      {"measurement": "growth inhibition of the cancer cells", "setting": "[6]", "result": "++ (40%-75% growth inhibition of the cancer cells)"},
      {"measurement": "growth inhibition of the cancer cells", "setting": "[7]", "result": "+++ (at least 75% growth inhibition of the cancer cells)"},
      {"measurement": "growth inhibition of the cancer cells", "setting": "[8]", "result": "++ (40%-75% growth inhibition of the cancer cells)"},
      {"measurement": "growth inhibition of the cancer cells", "setting": "[9]", "result": "+++ (at least 75% growth inhibition of the cancer cells)"},
      {"measurement": "growth inhibition of the cancer cells", "setting": "[10]", "result": "++ (40%-75% growth inhibition of the cancer cells)"},
      {"measurement": "EC50", "setting": "[11]", "result": "≤ 5", "unit": "µM"},
      {"measurement": "growth inhibition of the cancer cells", "setting": "[12]", "result": "+ (less than 40% growth inhibition of the cancer cells)"},
      {"measurement": "growth inhibition of the cancer cells", "setting": "[13]", "result": "+ (less than 40% growth inhibition of the cancer cells)"},
      {"measurement": "growth inhibition of the cancer cells", "setting": "[14]", "result": "+++ (at least 75% growth inhibition of the cancer cells)"},
      {"measurement": "growth inhibition of the cancer cells", "setting": "[15]", "result": "+++ (at least 75% growth inhibition of the cancer cells)"},
      {"measurement": "growth inhibition of the cancer cells", "setting": "[16]", "result": "+ (less than 40% growth inhibition of the cancer cells)"},
      {"measurement": "growth inhibition of the cancer cells", "setting": "[17]", "result": "+++ (at least 75% growth inhibition of the cancer cells)"},
      {"measurement": "growth inhibition of the cancer cells", "setting": "[18]", "result": "+ (less than 40% growth inhibition of the cancer cells)"},
      {"measurement": "growth inhibition of the cancer cells", "setting": "[19]", "result": "+++ (at least 75% growth inhibition of the cancer cells)"},
      {"measurement": "growth inhibition of the cancer cells", "setting": "[20]", "result": "++ (40%-75% growth inhibition of the cancer cells)"},
      {"measurement": "growth inhibition of the cancer cells", "setting": "[21]", "result": "++ (40%-75% growth inhibition of the cancer cells)"},
      {"measurement": "growth inhibition of the cancer cells", "setting": "[22]", "result": "+++ (at least 75% growth inhibition of the cancer cells)"},
      {"measurement": "growth inhibition of the cancer cells", "setting": "[23]", "result": "++ (40%-75% growth inhibition of the cancer cells)"},
      {"measurement": "growth inhibition of the cancer cells", "setting": "[24]", "result": "+ (less than 40% growth inhibition of the cancer cells)"},
      {"measurement": "growth inhibition of the cancer cells", "setting": "[25]", "result": "+++ (at least 75% growth inhibition of the cancer cells)"},
      {"measurement": "growth inhibition of the cancer cells", "setting": "[26]", "result": "+ (less than 40% growth inhibition of the cancer cells)"},
      {"measurement": "growth inhibition of the cancer cells", "setting": "[27]", "result": "+++ (at least 75% growth inhibition of the cancer cells)"},
      {"measurement": "growth inhibition of the cancer cells", "setting": "[28]", "result": "+++ (at least 75% growth inhibition of the cancer cells)"},
      {"measurement": "growth inhibition of the cancer cells", "setting": "[29]", "result": "+ (less than 40% growth inhibition of the cancer cells)"}
    ]}
  ]
}
